Laboratory results reported in patent US20260101916A1, “SWEETENED FIBER AND METHODS THEREOF” (ZeroIN Foods Inc., priority 2022, published 2026).

Experiments:
Type in all cases: in vivo, human
[1] = Sensory evaluation: sucrose vs sweetened fiber vs stevia extract (Example 9); settings: score 1 to 100; 10% sucrose, 10% sweet fiber, 0.05% RebM; FIG. 7
Method: A sensory evaluation session was conducted at BioFoodTech, to determine the taste difference between sucrose, the sweetened fiber of the present disclosure and stevia extract solutions. A group of twelve panelists formed a panel for the sensory evaluation. The ranking test measured the overall difference and intensity score for sensory attributes, including the strength of flavor, bitterness, liquorice taste and off-flavor.
A group of experienced panelists from BioFoodTech formed a panel for a sensory evaluation session to determine the quality difference between the sweet product samples.
Three 250 mL samples were prepared (10% solutions of sucrose, 10% the sweetened fiber of the present disclosure and 0.05% solution of Rebaudioside M (RebM). A sensory code consisting of a random 3-digit number was assigned to each sample.
Twelve experienced panelists were divided into two groups. A complete block design was chosen for the sensory evaluation of the […], including a ranking test used to determine the overall difference and intensity scoring for four […] attributes (strength of flavor, bitterness, liquorice taste and off-flavor). The four coded samples were presented to each panelist in a balanced order throughout the evaluation.
In the individual attributes evaluation, the panelists were asked to quantify the difference of specific attributes among the four samples by scoring from 1 to 100 (1 for none and 100 for the strongest, see FIG. 7) to reflect the intensity of the attribute best.

[2] = Comparative sensory study: sweetened fiber vs mixture of sweetener and fiber vs sweetener alone (Example 8); settings: 9-point hedonic scale, 10% in water, N=12, FIG. 6
Method: The sensory characteristics of the sweetened fiber of the present disclosure were evaluated against a simple mixture of dietary fiber and stevia extract or stevia extract alone. The preference towards the sweetened fiber of the present disclosure, a mixture of dietary fiber and stevia extract, or stevia extract alone was determined. Any sensory difference between the sweetened fiber of the present disclosure versus a mixture of dietary fiber and stevia extract was evaluated.
Study design: randomized crossover. Twelve adults were recruited for the study. Samples were evaluated for pleasantness using 9-point hedonic scales (Peryam, D. R., Girardot, N. F. (1952). Advanced taste test method. Food Engineering, 24, 58-61, 194.). Unstructured scales such as visual analogue scales (VAS) are also used for the sensory evaluation of food (Baten, W. D. (1946). Organoleptic tests pertaining to apples and pears. Journal of Food Science, 11, 84-94.). The intensity of off-taste, bitterness and sweet aftertaste sweetness were determined using a 10-point scale. […]
Data analysis: The normality of the data was evaluated using D'Agostino & Pearson omnibus normality test. If the data didn't follow a normal distribution, the statistical significance of preference and intensity was assessed with the Kruskal-Wallis test using an alpha criterion of 5%. […]

[3] = Double-blinded randomized crossover sensory study: sweetened fiber vs sucrose (Example 10); settings: 10% solution
Method: The sensory characteristics of an example of the sweetened fiber of the present disclosure were evaluated and compared to those of sucrose. Any preference towards the exemplary sweetened fiber of the present disclosure or sucrose solutions was determined. The sensory acceptance of the exemplary sweetened fiber of the present disclosure and sucrose was evaluated. Study design: double-blinded, randomized crossover. Sixty adults (18-65 years old, 30 males and 30 females) were recruited for the study. […] Samples were evaluated for pleasantness, taste, flavour, sweetness, and mouthfeel using 9-point hedonic scales ([…]. (1952). Advanced taste test method. Food Engineering, 24, 58-61, 194). […] The intensity of sweetness, bitterness, and metallic taste was determined using a 100 mm Visual Analogue Scale (VAS). […] Data analysis: The preference towards either blinded samples of 10% solution of Sucrose or 10% solution of the exemplary sweetened fiber of the present disclosure was determined with a forced paired preference test ([…]., Heymann, H. (2010). Sensory evaluation of food. Springer, New York, NY.). […] If there was an effect of sex (P≤0.05), the data was analyzed separately for males and females. If there was no effect of sex (P>0.05), the pooled data for males and females was analyzed with the Friedman test followed by Dunn's multiple comparisons. […]

[4] = Sensory testing by a panel of twelve tasters (Example 4); settings: 10% solution
Method: The taste of the sweetened fiber of the present disclosure prepared according to Example 1 was assessed by an external third party using a panel of tasters. A group of twelve panelists formed a panel for the sensory evaluation. The ranking test was used to measure the overall difference and intensity score for four sensory attributes, flavor, aftertaste, and mouthfeel. Each panelist evaluated all four samples. […] Sample Preparation: Two 250 mL samples were prepared (10% solutions of sucrose (control) and corn sweetened fiber of Example 1-1. A sensory code consisting of a random 3-digit number was assigned to each sample. Taste Session: The sensory evaluation was carried out at BioFoodTech's Sensory Lab. Twelve experienced panelists were divided into two groups. A complete block design was chosen for the sensory evaluation of the four samples, including a ranking test used to determine the overall difference. Statistical Analysis for the Data: For the individual attributes, Analysis of Variance (ANOVA) and the Tukey-Kramer HSD test were used to analyze the difference among sample means of individual attributes at a 5% significance level. For the Ranking test, a Friedman-type statistic was used to determine if there was a statistically significant difference among samples at a 5% significance level. All statistical analyses were done using the JMP®8 (SAS Institute Inc., Cary, NC).

SMILES	Mean score, bitterness [1]	Mean score, liquorice taste [1]	Mean score, off-flavor [1]	Mean score, strength of flavor [1]	Pleasantness [2]	Mean acceptance values on hedonic scales [3]	Rank mean (ranking taste preference) [4]	RankSum (ranking taste preference) [4]	Mouthfeel ([4]; n = 12)	Off-flavour ([4]; n = 12)	Sweetness ([4]; n = 12)	Taste preference ([4]; n = 12)
C=C1C[C@@]23CC[C@H]4[C@@](C)(CCC[C@@]4(C)C(=O)O[C@@H]4O[C@H](CO)[C@@H](O)[C@H](O[C@@H]5O[C@H](CO)[C@@H](O)[C@H](O)[C@H]5O)[C@H]4O[C@@H]4O[C@H](CO)[C@@H](O)[C@H](O)[C@H]4O)[C@@H]2CC[C@]1(O[C@@H]1O[C@H](CO)[C@@H](O)[C@H](O[C@@H]2O[C@H](CO)[C@@H](O)[C@H](O)[C@H]2O)[C@H]1O[C@@H]1O[C@H](CO)[C@@H](O)[C@H](O)[C@H]1O)C3 [Rebaudioside M]	highest	highest	highest	highest	no differences							
OC[C@H]1O[C@@](CO)(O[C@H]2O[C@H](CO)[C@@H](O)[C@H](O)[C@H]2O)[C@@H](O)[C@@H]1O [sucrose]						neutral or above the neutral	2.58	31	73%	0%	100%	98%
